According to PubChem BioAssay (NCI):
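48-hour exposure; five concentrations; linearly interpolated endpoints. TGI is the concentration that stops growth completely.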

What was measured:
Experiment in all cases: NCI-60 cell line screen, 48 h
COLO 205 colon = system: COLO 205 colon
DU-145 prostate = system: DU-145 prostate
EKVX NSCLC = system: EKVX NSCLC
M14 melanoma = system: M14 melanoma
MOLT-4 leukemia = system: MOLT-4 leukemia
NCI-H460 lung = system: NCI-H460 lung
OVCAR-5 ovarian = system: OVCAR-5 ovarian
PC-3 prostate = system: PC-3 prostate
RPMI-8226 leukemia = system: RPMI-8226 leukemia
SNB-75 CNS = system: SNB-75 CNS

Structure (SMILES)	TGI (COLO 205 colon) [µM]	TGI (DU-145 prostate) [µM]	TGI (EKVX NSCLC) [µM]	TGI (M14 melanoma) [µM]	TGI (MOLT-4 leukemia) [µM]	TGI (NCI-H460 lung) [µM]	TGI (OVCAR-5 ovarian) [µM]	TGI (PC-3 prostate) [µM]	TGI (RPMI-8226 leukemia) [µM]	TGI (SNB-75 CNS) [µM]
COc1cc2c(cc1C)NC(=O)/C2=C/c1c(Cl)[nH]c2ccccc12	13.1	27	20.9	13.3	31.3	17.1	24.4	18.3	> 100	21.7
CCC(CCCC[C@H]1CC[C@@H]2CC(=O)C[C@H]12)OC (stereo not given in full)	> 100	> 100	> 100	> 100	> 100	> 100	> 100	> 100	> 100	> 100
Cc1c(CCCl)c(Cl)n2c(nc3ccccc32)c1C#N	2.47	4.56	25.3	3.06	0.653	1.69	4.1	2.4	0.385	14.1
CCOC(=O)c1cccc(N=NNc2cccc(C(=O)OCC)c2)c1	> 100	> 100	> 100	> 100	> 100	> 100	> 100	> 100	> 100	36.9
NC1CC(=O)c2c(I)sc(I)c21 (stereo not given)	> 63	> 55.1	39.3	> 77.1	44.8	66.8	53	42.8	29.9	37.9
N#CC1=C(N)OC2=C(CCCc3ccc([N+](=O)[O-])cc32)C1c1ccc(Cl)cc1 (stereo not given)	> 100	63.2	71.7	49.8	93.1	15.7	> 100	> 100	32	> 100
COC(=O)[C@@H]1CN(C(=O)Cc2ccccc2)C(=O)N1	> 100	> 100	> 100	> 100	> 100	> 100	> 100	> 100	> 100	> 100
CCc1nnc2sc(-c3ccc(-c4ccccc4[N+](=O)[O-])o3)nn12	> 100	> 100	> 100	> 100	62.8	> 100	> 100	> 100	> 100	> 100
O=C1N[C@@H]([C@H]2CC[C@H](Cl)CN2)C(=O)N[C@H]1[C@H]1CC[C@H](Cl)CN1	9.68	23.8	19.2	2.3	13.3	2.88	9.05	18	75.1	3.65
O=C1c2ccccc2CC12Cc1ccc3c(c1C2=O)CCCC3 (stereo not given)	> 100	> 100	> 100	> 100	12.5	> 100	> 100	> 100	> 100	70.5
CCOC(=O)c1c(NS(=O)(=O)c2ccccc2)sc2c1CCCC2	> 100	> 100	> 100	> 100	> 100	> 100	> 100	> 100	> 100	> 100
COc1cccc(C2c3cc4c(cc3OC(NNS(=O)(=O)c3ccc(C)cc3)C2C)OCO4)c1O (stereo not given)	34.2	> 100	> 100	> 100	52.1	82	> 100	65.8	32.4	40.7
c1cc(CSP234N5CCN2CCN3CCN4CC5)cc(CSP234N5CCN2CCN3CCN4CC5)c1	49.9	> 100	> 100	49	49.5	> 100	> 100	> 100	> 100	76.4
C1CCC(CC2CCC(NC3=NCCO3)CC2)CC1 (stereo not given)	28.2	94.9	54.4	33.8	48.1	37.1	53.6	31.7	55.9	36.6
COc1ccc2cc(CNCCCCCCNC(=O)Nc3cccc4ccccc34)ccc2c1	> 100	> 100	> 100	> 100	> 100	> 100	> 100	> 100	> 100	> 100
CCOC(=O)/C(C(=O)c1ccc[nH]1)=C1/CCCN1C	> 100	> 100	> 100	> 100	> 100	> 100	> 100	> 100	> 100	> 100
